According to PubChem BioAssay (NCI):
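48-hour exposure; five concentrations; linearly interpolated endpoints. Here, GI50 denotes the concentration required for 50% inhibition of growth. TGI is the concentration that stops growth completely.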

Assays:
Test in all cases: NCI anticancer screen, dose series, 48 h
[1] = test system: MDA-MB-435
[2] = test system: RXF 393 renal
[3] = test system: IGROV1 ovarian
[4] = test system: U251 CNS
[5] = test system: PC-3 prostate
[6] = test system: HS 578T breast
[7] = test system: NCI-H522 lung
[8] = test system: BT-549 breast
[9] = test system: LOX IMVI melanoma
[10] = test system: TK-10 renal

| Compound | GI50 [1] [µM] | TGI [1] [µM] | GI50 [2] [µM] | TGI [2] [µM] | GI50 [3] [µM] | TGI [3] [µM] | GI50 [4] [µM] | TGI [4] [µM] | GI50 [5] [µM] | TGI [5] [µM] | GI50 [6] [µM] | TGI [6] [µM] | GI50 [7] [µM] | TGI [7] [µM] | GI50 [8] [µM] | TGI [8] [µM] | GI50 [9] [µM] | TGI [9] [µM] | GI50 [10] [µM] | TGI [10] [µM] |
| --- | --- | --- | --- | --- | --- | --- | --- | --- | --- | --- | --- | --- | --- | --- | --- | --- | --- | --- | --- | --- |
| c1ccc2nc(OCCN3CC3)ccc2c1 | 3.31 | 17.9 | 14.6 | 32.5 | 2.24 | 10.8 | 5.2 | 18.9 | 10.4 | 25.2 | 20.3 | 62.2 | 1.71 | 4.04 | 20.7 | 37.7 | 4.05 | > 100 | 4.89 | 23.1 |
| COc1cccc(C2=C(c3cn(C)c4cccc(OC)c34)C(=O)NC2=O)c1 | 0.832 | > 9.17 | 5.03 | > 19 | 7.49 | > 25 | 11.5 | > 25 | 8.02 | > 25 | 8.93 | > 25 | 1.67 | > 19.7 | 12.9 | > 25 | 17.1 | > 25 | 15.3 | > 25 |
| Oc1c(CN2CCOCC2)cc(COCc2ccccc2)c2cccnc12 | 6.5 | > 100 | 3.25 | 72.7 | 3.85 | > 100 | 2.77 | > 100 | 7.34 | > 100 | 19.4 | > 100 | 1.79 | 8.56 | 3.19 | 81.8 | 1.19 | 10.4 | 3.75 | > 100 |
| CCOC(=S)SCN1C(=O)c2ccccc2S1(=O)=O | 6.5 | 24.4 | 6.97 | 21.6 | 18.5 | 52.4 | 18.7 | 37.3 | 33 | > 100 | 29.4 | 82.5 | 11.3 | 27.8 | 16 | 38.4 | 17.1 | 31.9 | 29.4 | > 100 |
| O=[As]c1ccc(C(=O)c2ccc(Oc3ccccc3)cc2)cc1 (centres undefined) | 0.0396 | 0.176 | 0.0404 | 0.143 | 0.044 | 0.219 | 0.0181 | 0.0586 | 0.0349 | 0.142 | 0.129 |  | 0.0219 | 0.0865 | 0.135 | 0.278 | 0.0246 | 0.0796 | 0.063 | 0.19 |
| COc1ccc(/C=N/N=C(\[O-])c2ccncc2)cc1F.COc1ccc(/C=N\N=C(/[O-])c2ccncc2)cc1F.[Cu+2] | 62.1 | > 100 | 18.9 | 32.9 | 17.6 | 40.2 | 19.4 | 35.8 | 16.8 | 35.1 | 18 | 60 | 12.7 | 26.1 | 20.5 | 37.1 | 68.8 | > 100 | 19.9 | 48 |
